{"source": "patent US20060154252A1", "about": "“Methods and composition for identifying therapeutic agents of atherosclerotic plaque lesions” (priority 2002, published 2006)", "tested_on": "Differentiated-THP-1", "assay": "Vesicle formation in the presence of fatty acids (Nile Red staining)", "assay_type": "cell-based", "settings": "200 μM albumin-coupled fatty acid, 24 hours, differentiated macrophage permanent cell line", "method": "Fatty acids can be prepared according to Spector A A and Hoak J C, (1969 Anal. Biochem, 32: 297-302): Breifly, 100 μmol of fatty acid (12:0, 16:0, 18:0 and 20:0) can be dissolved in 7.5 ml of hexane containing 400 mg of Celite (Sigma). The solvent is then evaporated under nitrogen by continuous magnetic stirring. The fatty acid-coated particles are then mixed with fatty acid free albumin, in serum free medium for 1 hour at room temperature under nitrogen. After centrifugation, the supernatnts containing fatty acid coupled to albumin is conserved.\nVesicle formation in the presence of fatty acids was induced as follows: briefly, THP1 differentiation was induced in a medium supplemented with 10^−7 M of phorbol 12-myristate-13-acetate (Sigma) for 24 hours at 37° C., 5% CO2. Differentiated-THP-1 was incubated with or without 200 μM of fatty acid-BSA complexes for 24 hours at 37° C., 5% CO2. After washing and paraformaldhehyde fixation, cells were stained with Nile Red (1 μg/ml) and Hoechst 33342 (10 μg/ml) solution for 10 minutes at RT. After washing, images of cells staining with Nile Red and Hoechst 33342 were automatized captured using a fluorescence microscope controlled by MetaMorph Software (Universal Imaging) and coupled with a CCD camera. After images analysis, results were expressed as the sum of Nile red intensity per cells number.", "note": "“Also recorded” adds a separate entry of the source.", "data": [{"smiles": "CCCCCCCCCCCCCCCCCC(=O)O", "note": "[stearic acid]", "values": [{"measurement": "induction of lipid vesicles / foam cell formation (FIG. 9)", "value": "Formation of foam cells; also recorded: induction of lipid vesicles"}]}]}
